The test system of data set [1] is HepG2 cells. As to the kind of experiment: Insulin signaling assay in HepG2 cells, marker genes taken together. Format: cell-based, human. Conditions: for expression of the IGFBP-1, PEPCK-c and follistatin marker genes: 100 nM.
The subject of data set [2] is mir-15a pri-miRNA. Put plainly: mir-15a pri-miRNA expression in T47D cells (real-time RT-PCR). Conditions: for mir-15a pri-miRNA expression % UTC: real-time RT-PCR; for levels of the mir-15a pri-miRNA molecule: 100 nM. Format: cell-based, human. The text has this: The gapmer oligomeric compounds targeting the mir-15b and mir-15-a-1 mature miRNAs described above were also transfected into T47D cells according to standard procedures. In addition, uniform 2′-MOE and 2′-MOE gapmer oligomeric compounds targeting the mature mir-15a-1 and mir-15b miRNAs were also transfected into T47D cells, for analysis of their effects on mir-15a-1 and mir-15b pri-miRNA levels. The oligomeric compounds ISIS Number 327927 (SEQ ID NO: 345), a uniform 2′-MOE compound and ISIS Number 345391 (SEQ ID NO: 345), a 2′-MOE 5-10-7 gapmer compound, both target mir-15b. The oligomeric compounds ISIS Number 327951 (SEQ ID NO: 369), a uniform 2′-MOE compound, and ISIS Number 345411 (SEQ ID NO: 369), a 2′-MOE 5-10-7 gapmer compound, both target mir-15a-1. Oligomeric compounds ISIS Number 129686 ([…]; SEQ ID NO: 901), and ISIS Number 129691 ([…]; SEQ ID NO:902), both universal scrambled controls, as well as ISIS Number 116847 ([…]; SEQ ID NO: 844) targeting an unrelated gene, PTEN, were used as negative controls. ISIS Numbers 129686, 129691, and 116847 are phosphorothiated 2′-MOE 5-10-5 gapmers, and all cytosines are 5-methylcytosines. T47D cells (seeded in 12-well plates) were treated with these oligomeric compounds, and RNA was isolated from the treated cells by lysing in 1 mL TRIZOL™ (Invitrogen) and total RNA was prepared using the manufacturer's recommended protocols. To assess the effects of these compounds on expression of the mir-15a or mir-15b pri-miRNA molecules, real-time RT-PCR analysis was performed using either the primer/probe set specific for the mir-15a pri-miRNA molecule described above, or a primer probe set specific for the mir-15b pri-miRNA molecule: ISIS 339320 ([…]; SEQ ID NO: 903) was used as the forward primer for the mir-15b pri-miRNA, ISIS 339321 ([…] ACTGT; SEQ ID NO: 904) was used as the reverse primer for the mir-15b pri-miRNA, and ISIS 339322 ([…]; SEQ ID NO: 905) was used as the probe. Total RNA was quantified using RiboGreen™ RNA quantification reagent (Molecular Probes, Inc. Eugene, Oreg.), expression levels observed for each target were normalized to 5.8S rRNA, and values are expressed relative to the untreated control. Inhibition of expression of the mir15a or mir-15b pri-miRNA molecules upon treatment with these oligomeric compounds is was assessed and expressed as a percentage of RNA levels in untreated control cells.
Using the real-time RT-PCR methods described, the expression levels of the mir-15a pri-miRNA were compared in T47D cells treated with the nested series of uniform 2′-MOE oligomeric compounds, targeting and spanning the entire length of the mir-15a pri-miRNA. The region encompassing the mir-15a primary transcript (the complement of nucleotides 31603159 to 31603468 of GenBank Accession number NT—024524.13; AAATAATTATG […]) is incorporated herein as SEQ ID NO: 906. ISIS Number 356215 (SEQ ID NO: 879) targets a region flanking and immediately 5′ to the predicted 5′ Drosha cleavage site in the mir-15a pri-miRNA. ISIS Number 356218 (SEQ ID NO: 881) targets aregion in the loop of the mir-15a pri-miRNA. ISIS 356227 (SEQ ID NO: 883) targets a region flanking and immediately 3′ to the predicted 3′ Drosha cleavage site in the mir-15a pri-miRNA. Additionally, oligomeric compound ISIS 327951 (SEQ ID NO: 369), a uniform 2′-MOE compound targeting the mature mir-15a-1 miRNA, was tested for comparison. Oligomeric compounds ISIS 327901 (SEQ ID NO: 319) targeting the mature mir-143 miRNA; ISIS 129690, ([…]; SEQ ID NO: 907), a phosphorothioate 5-10-5 MOE gapmer used as a universal scrambled control; and ISIS 116847 ([…]; SEQ ID NO: 844), a uniform 5-10-52′-MOE gapmer targeting an unrelated gene, PTEN, were used as negative controls. Using the transfection methods previously described, T47D cells were treated with 100 nM of each of these oligomeric compounds. […]
(In general: In qPCR the cycle at which signal appears reflects the starting amount.)

In data set [3] the test system is preadipocytes / differentiating adipocytes. Put plainly: Adipocyte differentiation assay, markers taken together. Conditions: differentiating adipocytes, % of UTC (Table 55). Format: cell-based, human.
The test system of data set [4] is T47D cells. As to the kind of experiment: Caspase-3 activity assay (apoptosis) in T47D cells. The settings on record: caspase assay, 200 nM; conclusion from Tables 9-12.

“Also recorded” adds a separate entry of the source. In the oligonucleotide strings, read from the 5' end, every base follows the letter of its sugar. An asterisk marks phosphorothioate; unmarked linkages are phosphodiester. Other units and linkages are bracketed, terminal groups are in braces. A string of capitals states the bases alone. e = 2'-O-(2-methoxyethyl) (MOE); [5mC] = 5-methylcytosine; d = 2'-deoxy (DNA)

Consider “ISIS 341803: SEQ ID NO: 760, targeting mir-206 (antisense CCACACACTTCCTTACATTCCA; all 2'-MOE, all phosphorothioate, methylation of C not given here)”, for which the “IGFBP-1 and PEPCK-c marker genes” value in data set [1] (HepG2, basal (no insulin)) is “increases in the IGFBP-1 and PEPCK-c marker genes”.
Take “356232 (eA*eA*eA*eT*eA*eT*eA*eT*eT*eT*eT*e[5mC]*eT*eT*e[5mC]*eA*eG*eA*eA*eG) [compound 356232]”: the “mir-15a pri-miRNA expression % UTC” value in data set [2] was determined as 631 % UTC.
For the substance “ISIS 356227: uniform 2′-MOE PS; SEQ ID NO: 883; region immediately 3′ to 3′ Drosha cleavage site of mir-15a pri-miRNA (antisense eT*e[5mC]*e[5mC]*eT*eT*eG*eT*eA*eT*eT*eT*eT*eT*eG*eA*eG*eG*e[5mC]*eA*eG) [uniform 2′-MOE PS; region immediately 3′ to 3′ Drosha cleavage site of mir-15a pri-miRNA]”, in data set [2], the “levels of the mir-15a pri-miRNA molecule” value is “stimulate an increase in levels of the mir-15a pri-miRNA molecule; also recorded: stimulate the greatest increases in expression of the mir-15a pri-miRNA”.
In the case of “ISIS 356215: uniform 2′-MOE PS; SEQ ID NO: 879; region immediately 5′ to 5′ Drosha cleavage site of mir-15a pri-miRNA (antisense eT*eG*e[5mC]*eT*eA*e[5mC]*eT*eT*eT*eA*e[5mC]*eT*e[5mC]*e[5mC]*eA*eA*eG*eG*eT*eT) [uniform 2′-MOE PS; region immediately 5′ to 5′ Drosha cleavage site of mir-15a pri-miRNA]”, in data set [2], the “levels of the mir-15a pri-miRNA molecule” value is “stimulate an increase in levels of the mir-15a pri-miRNA molecule; also recorded: stimulate the greatest increases in expression of the mir-15a pri-miRNA”.
Take “GAAAGAGACCGGTTCACTGTGA (anti-miR; chemistry not fully specified) [ISIS 327923, uniform 2′-MOE PS; targets mir-128b]”: the “expression of the IGFBP-1, PEPCK-c and follistatin marker genes” value in data set [1] (HepG2, 1 nM insulin) was “increased expression of the IGFBP-1, PEPCK-c and follistatin marker genes”.
With “CACAAATTCGGATCTACAGGGTA (anti-miR; chemistry not fully specified) [ISIS 327949, uniform 2′-MOE PS; targets mir-10a]”, in data set [1] (HepG2, basal (no insulin)), the “expression of the IGFBP-1 and follistatin marker genes” value is “increased expression of the IGFBP-1 and follistatin marker genes”.
Consider “ISIS 356231: uniform 2′-MOE PS; targets mir-15a pri-miRNA (antisense eT*eT*e[5mC]*eA*eG*eA*eA*eG*eA*eT*e[5mC]*eA*eG*eA*eT*e[5mC]*e[5mC]*eT*eT*eG)”, for which, in data set [2], the “levels of the mir-15a pri-miRNA molecule” value was “stimulate an increase in levels of the mir-15a pri-miRNA molecule”.
For the substance “CCAAGTTCTGTCATGCACTGA (anti-miR; chemistry not fully specified) [ISIS 327964, uniform 2′-MOE PS; targets mir-152]”, in data set [1] (HepG2, 1 nM insulin), the “expression of the IGFBP-1, PEPCK-c and follistatin marker genes” value was “increased expression of the IGFBP-1, PEPCK-c and follistatin marker genes”.
For the substance “GGGGTATTTGACAAACTGACA (anti-miR; chemistry not fully specified) [ISIS 327961, uniform 2′-MOE PS; targets mir-223]”, the “expression of the IGFBP-1, PEPCK-c and follistatin marker genes” value in data set [1] (HepG2, 1 nM insulin) was “increased expression of the IGFBP-1, PEPCK-c and follistatin marker genes”. Further, the “expression of the IGFBP-1 and follistatin marker genes” value in data set [1] (HepG2, basal (no insulin)) is “increased expression of the IGFBP-1 and follistatin marker genes”.
Consider “356231 (eT*eT*e[5mC]*eA*eG*eA*eA*eG*eA*eT*e[5mC]*eA*eG*eA*eT*e[5mC]*e[5mC]*eT*eT*eG) [compound 356231]”, for which the “mir-15a pri-miRNA expression % UTC” value in data set [2] worked out at 811 % UTC.
Turning to “ISIS 356218: uniform 2′-MOE PS; SEQ ID NO: 881; loop of the mir-15a pri-miRNA (antisense eT*eG*eG*e[5mC]*e[5mC]*eT*eG*e[5mC]*eA*e[5mC]*e[5mC]*eT*eT*eT*eT*e[5mC]*eA*eA*eA*eA) [uniform 2′-MOE PS; loop of the mir-15a pri-miRNA]”, in data set [2], the “levels of the mir-15a pri-miRNA molecule” value is “stimulate an increase in levels of the mir-15a pri-miRNA molecule”.
Consider “ISIS 356221: uniform 2′-MOE PS; SEQ ID NO: 882; targets mir-15a pri-miRNA (antisense eA*eG*e[5mC]*eA*e[5mC]*eA*eA*eT*eA*eT*eG*eG*e[5mC]*e[5mC]*eT*eG*e[5mC]*eA*e[5mC]*e[5mC]) [uniform 2′-MOE PS; targets mir-15a pri-miRNA]”, for which the “levels of the mir-15a pri-miRNA molecule” value in data set [2] was “stimulate an increase in levels of the mir-15a pri-miRNA molecule”.
Same read-out and setting: next, “ISIS 356216: uniform 2′-MOE PS; SEQ ID NO: 880; targets mir-15a pri-miRNA (antisense eG*e[5mC]*eA*e[5mC]*e[5mC]*eT*eT*eT*eT*e[5mC]*eA*eA*eA*eA*eT*e[5mC]*e[5mC]*eA*e[5mC]*eA) [uniform 2′-MOE PS; targets mir-15a pri-miRNA]”: “stimulate an increase in levels of the mir-15a pri-miRNA molecule”.
Take “TGTAAACCATGATGTGCTGCTA (anti-miR; chemistry not fully specified) [ISIS 327927, uniform 2′-MOE PS; targets mir-15b]”: in data set [3], the “five markers of adipocyte differentiation” value was “increase in all five markers of adipocyte differentiation”. The “levels of the mir-15a pri-miRNA molecule” value in data set [2] is recorded as “stimulate an increase in levels of the mir-15a pri-miRNA molecule”.
With “ISIS 328377: 5-10-5 2′-MOE gapmer PS; targets hypothetical miRNA-030 pri-miRNA (eT*e[5mC]*eA*e[5mC]*eT*d[5mC]*d[5mC]*dT*dA*dA*dA*dG*dG*dT*dT*e[5mC]*eA*eA*eG*eT)”, in data set [1] (HepG2, 1 nM insulin), the “expression of the IGFBP-1, PEPCK-c and follistatin marker genes” value was “increased expression of the IGFBP-1, PEPCK-c and follistatin marker genes”. In addition, in data set [4], the “apoptosis in T47D cells” value is recorded as “prevent or have a protective effect from apoptosis”.
Consider “ISIS 356229: uniform 2′-MOE PS; SEQ ID NO: 884; targets mir-15a pri-miRNA (antisense eA*eG*eA*eT*e[5mC]*eA*eG*eA*eT*e[5mC]*e[5mC]*eT*eT*eG*eT*eA*eT*eT*eT*eT) [uniform 2′-MOE PS; targets mir-15a pri-miRNA]”, for which the “levels of the mir-15a pri-miRNA molecule” value in data set [2] is given as “stimulate an increase in levels of the mir-15a pri-miRNA molecule”.
For the substance “ISIS 341802: SEQ ID NO: 1806, targeting mir-191 (antisense AGCUGCUUUUGGGAUUCCGUUG; all 2'-MOE, all phosphorothioate, methylation of C and T or U not given here)”, the “expression of the IGFBP-1 and follistatin marker genes” value in data set [1] (HepG2, basal (no insulin)) was “increased expression of the IGFBP-1 and follistatin marker genes”.
Turning to “AACCGATTTCAAATGGTGCTAG (anti-miR; chemistry not fully specified) [ISIS 327913, uniform 2′-MOE PS; targets mir-29c]”, the “expression of the IGFBP-1, PEPCK-c and follistatin marker genes” value in data set [1] (HepG2, 1 nM insulin) was “increased expression of the IGFBP-1, PEPCK-c and follistatin marker genes”; in data set [1] (HepG2, basal (no insulin)), “increased expression of the IGFBP-1, PEPCK-c and follistatin marker genes”.

The values are drawn from patent US8178506B2, “Oligomeric compounds and compositions for use in modulation of small non-coding RNAs” (Regulus Therapeutics Inc., priority 2003, dated 2012).
